In one data set the test system is PANC-1. Description: Cytotoxicity, Sulforhodamine B proliferation assay. The format is cell-based, Human. The method, then: Human pancreatic ductal adenocarcinoma cell lines MIA PaCa-2 and PANC1 and the murine pancreatic cancer cell line Panc02 were used. All cell lines were cultured in Dulbecco's modified Eagle medium (DMEM) supplemented with 10% fetal bovine serum and 1% streptomycin penicillin (Sigma-Aldrich). Cells were maintained in monolayer culture in an atmosphere of 37° C. and 5% CO2 and passaged using 0.25% trypsin and 0.02% EDTA.
Panc02, PANC-1 and MIA PaCa-2 cell lines were treated with NP-ACP-OLA and NP-ACP-OLA-AA to determine their cytotoxic effect. The toxicity of NP-ACP and NP-ACP-AA (controls) was tested in all cell lines. For this, PANC-1 cells were seeded at densities of 8×10^3 cells/well and Panc02 and MIA PaCa-2 cells at densities of 2.5×10^3 cells/well in 48-well plates, incubated overnight and exposed to DMSO (OLA solvent), OLA (in different concentration ranges depending on the cell line used), NPs with and without OLA and ascorbic acid for 72 h. Subsequently, the cells were fixed with 10% trichloroacetic acid for 20 minutes and washed three times with distilled water. […] Finally, the optical density (OD) of the dye was measured with a Titertek Multiskan colorimeter (Flow) at 492 nm. Proliferation percentages (Pf %) were calculated as: Pf %=(OD of sample/OD of negative control)×100. […]

A further data set concerns PANC-1 cell migration. Description: Cell migration assay. As to conditions: PANC-1, Cl25 of OLA, monitored 72 h. The format is cell-based, Human. Here is the method: PANC-1 cell migration is a phenomenon related to PARP1 inhibition. To study the effect of NP-ACP-OLA-AA with respect to free OLA and OLA-NPs, the following treatment was carried out with the PANC-1 cell line. NP-ACP-AA was used as a control.
The PANC- 1 cell line was seeded in a 12-well plate (Thermo Fisher) and grown to 95-100% confluence in medium supplemented with DMEM (Sigma-Aldrich). Then, a […] was manually performed using a pipette tip. The next day, dead cells were removed using phosphate buffered saline (PBS) and the culture medium was replaced with DMEM without FBS to prevent cell proliferation. Then, Cl25 of OLA concentration (free and OLA-NPs) was added to the wells and the cells were incubated for 72 h during which the migratory process was monitored using a DM-IL LED microscope. The percentage of migration was calculated by measuring the tumor cell free area at different times using ImageJ software with the Chemotaxis and Migration Tool add-on.

The next data set concerns PANC-1-induced tumors. Description: In vivo tumor growth and survival, mice with PANC-1-induced tumors. As to conditions: 25 mg/kg OLA intraperitoneally every 3 days, 10 cycles. Here is the method:
Male and female NOD scid gamma mice generated by the Centro de Instrumentación Científica of the University of Granada were used for the in vivo study. All mice (body weight: 20-25 g) were housed in cages with free access to water and food prior to the experiments and were maintained under controlled temperature, light and humidity (22.0±2° C., 12 h light-dark cycle and 40-70% relative humidity), in specific pathogen-free conditions with sterile atmosphere controlled by HEPA filters. The study was approved by the Ethical Committee for Animal Experimentation of the University of Granada (reference code: 16/01/2020/005) and was performed in accordance with its guidelines. Tumors were induced by subcutaneous injection of 9×10^5 cells derived from the PANC1 cell line into the right flank of NOD-SCID gamma mice. When the tumor was palpable, animals were randomly divided into four groups (n=8-10 mice per group, selecting the tumor-inducing mice): PANC1 mice treated with OLA solvent-(group I), OLA (group II), NP-ACP-AA (group III) and NP-ACP-OLA-AA (group IV). The OLA solvent was 5% DMSO, 40% PEG300, 5% Tween-80 and 50% saline and the NPs were dispersed in saline. […] Weights and deaths were carefully recorded throughout the period and tumor volume was measured with a digital caliper. Tumor volume (mm^3) was calculated as follows: V (mm^3)=(a×b2×π)/6. […]

The nature of data set [1]: Release kinetics / degradation of OLA and AA in PBS by UV-Vis. In kind it is physicochemical. As to conditions: buffer, pH 7.4.
Method: Briefly, 0.9 mg of NP was weighed into a quartz cuvette and then 3 mL of PBS solution (pH=7.4) was carefully added to the cuvette. The absorbance curve from 200 nm to 400 nm was measured continuously every half hour until the plateau was reached. The amount of OLA and ascorbic acid released was determined at wavelengths of 311 nm and 265 nm, respectively. This technique allowed simultaneous quantification of the two molecules by monitoring the absorbance at 311 nm (OLA) and 265 nm (AA) (FIG. 1).
All measurements were performed in triplicate.
The degradation of AA followed an exponential decay according to the equation y(t)=e^−t/τ, where τ corresponds to the half-life of the molecule.

Structures are written as SMILES. Where only a bound is given, the exact number is not on record here.

With `O=C(c1cc(Cc2n[nH]c(=O)c3ccccc23)ccc1F)N1CCN(C(=O)C2CC2)CC1` [OLA, Olaparib], in the data set with PANC-1 (PANC-1 vs MIA PaCa-2), the “Cl50 in PANC-1 higher than in MIA PaCa-2” value is given as 8.5 times. In addition, in the data set with PANC-1 (PANC-1 vs Panc02), the “Cl50 in PANC-1 higher than in Panc02” value stood at 7.5 times. For the same compound, the “inhibition of cell migration compared to untreated cells” value with PANC-1 cell migration is listed as “inhibited migration only at 72 hours”. Moreover, in the data set on PANC-1-induced tumors, the “decrease in tumor volume compared to untreated control mice” value is listed as 28.3% and the survival of mice amounted to 44%.

What is called half-life is how long it takes for the measured level to halve. A high value points to slow loss. Turning to `O=C1O[C@H]([C@@H](O)CO)C(O)=C1O` [AA, ascorbic acid], in data set [1] (10.5 ppm), the “time AA remained before being degraded” value was ≤ 12 h. Moreover, in data set [1], the half-life at 10.5 ppm was 2.7 h.

These data come from US20260216085A1, “NANOPARTICLES TO ENHANCE THE EFFECTS OF DRUGS FOR THE TREATMENT OF CANCER” (UNIVERSIDAD DE GRANADA, priority 2022, published 2026).
